Laboratory results: patent US10597388B2, “Pyridazinone herbicides” (FMC CORPORATION, priority 2014, dated 2020)

Experiments:
Assay in all cases: Test C greenhouse herbicide test, pre- and postemergence
Assay type in all cases: in vivo
[1] = test system: galium (catchweed bedstraw, Galium aparine)
Summary of the method: (§1)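 Greenhouse pots; pre-em on seeded loam:sand blend, post-em on 2–18 cm plants (1–4 leaf) in sphagnum peat/vermiculite medium. Formulation: non-phytotoxic solvent + surfactant. Read-out: visual % control (0–100) vs controls at 13–15 d.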

soybean (Glycine max) = test system: soybean (Glycine max)
Summary of the method: as §1

corn (Zea mays) = test system: corn (Zea mays)
Summary of the method: as §1

[2] = test system: foxtail, giant (giant foxtail, Setaria faberii)
Summary of the method: as §1

[3] = test system: crabgrass, large (large crabgrass, Digitaria sanguinalis)
Summary of the method: as §1

[4] = test system: velvetleaf (Abutilon theophrasti)
Summary of the method: as §1

[5] = test system: wheat (winter wheat, Triticum aestivum)
Summary of the method: as §1

[6] = test system: blackgrass (Alopecurus myosuroides)
Summary of the method: as §1

[7] = test system: barnyardgrass (Echinochloa crus-galli)
Summary of the method: as §1

[8] = test system: nutsedge, yellow (yellow nutsedge, Cyperus esculentus)
Summary of the method: as §1

[9] = test system: johnsongrass (Sorghum halepense)
Summary of the method: as §1

[10] = test system: ryegrass, Italian (Italian ryegrass, Lolium multiflorum)
Summary of the method: as §1

[11] = Postemergence, 31 g ai/ha, scale 0 to 100 (0 no effect, 100 complete control)
[12] = Postemergence, 62 g ai/ha, 0 to 100 scale (0 no effect, 100 complete control)
[13] = Postemergence, 250 g ai/ha, scale 0 to 100, 0 no effect, 100 complete control, 13 to 15 d
[14] = postemergence, 125 g ai/ha, scale 0 to 100, 0 no effect, 100 complete control
[15] = Preemergence, 31 g ai/ha, scale 0 to 100, 0 is no effect, 100 is complete control
[16] = Preemergence, 62 g ai/ha, scale 0 to 100, 0 is no effect, 100 is complete control
[17] = Preemergence, 125 g ai/ha, scale 0 to 100, 0 is no effect, 100 is complete control
[18] = Preemergence, 250 g ai/ha, scale 0 to 100, 0 no effect, 100 complete control

`COC(=O)Oc1c(C)nn(C)c(=O)c1-c1ccc(F)c2ccccc12` [Compound 130] was tested, and the “Plant response rating, Galium” value [1, 11] was 95, the “Galium plant response rating” value [1, 12] was 95 and the “Plant response rating, Galium” value [1, 13] was 98. The “Galium plant response rating” value [1, 14] was 95, the “Plant response rating, Soybean” value (soybean (Glycine max); [11]) was 10 and the “Soybean plant response rating” value (soybean (Glycine max); [12]) was 15. The “Plant response rating, Soybean” value (soybean (Glycine max); [13]) was 50, the “Soybean plant response rating” value (soybean (Glycine max); [14]) was 25 and the “Plant response rating, Corn” value (corn (Zea mays); [11]) was 5. The “Corn plant response rating” value (corn (Zea mays); [12]) was 5, the “Plant response rating, Corn” value (corn (Zea mays); [13]) was 15 and the “Corn plant response rating” value (corn (Zea mays); [14]) was 5. The “Plant response rating, Foxtail, Giant” value [2, 11] was 20, the “Foxtail, Giant plant response rating” value [2, 12] was 20 and the “Plant response rating, Foxtail, Giant” value [2, 13] was 70. For the same compound, the “Foxtail, Giant plant response rating” value [2, 14] was 40, the “Plant response rating, Crabgrass, Large” value [3, 11] was 10 and the “Crabgrass, Large plant response rating” value [3, 12] was 15. For the same compound, the “Plant response rating, Crabgrass, Large” value [3, 13] was 60, the “Crabgrass, Large plant response rating” value [3, 14] was 15 and the “Plant response rating, Velvetleaf” value [4, 11] was 75. The “Velvetleaf plant response rating” value [4, 12] was 70, the “Plant response rating, Velvetleaf” value [4, 13] was 98 and the “Velvetleaf plant response rating” value [4, 14] was 98. For the same compound, the “Plant response rating, Wheat” value [5, 11] was 0, the “Wheat plant response rating” value [5, 12] was 5 and the “Plant response rating, Wheat” value [5, 13] was 15. For the same compound, the “Wheat plant response rating” value [5, 14] was 10, the “Plant response rating, Blackgrass” value [6, 11] was 30 and the “Blackgrass plant response rating” value [6, 12] was 35. For the same compound, the “Plant response rating, Blackgrass” value [6, 13] was 60, the “Blackgrass plant response rating” value [6, 14] was 55 and the “Plant response rating, Barnyardgrass” value [7, 11] was 30. For the same compound, the “Barnyardgrass plant response rating” value [7, 12] was 30, the “Plant response rating, Barnyardgrass” value ([7]; Postemergence, 125 g ai/ha, scale 0 to 100, 0 is no effect, 100 is complete control) was 35 and the “Plant response rating, Barnyardgrass” value [7, 13] was 55. The “Plant response rating, Nutsedge, Yellow” value [8, 11] was 55, the “Nutsedge, Yellow plant response rating” value [8, 12] was 75 and the “Plant response rating, Nutsedge, Yellow” value [8, 13] was 85. For the same compound, the “Nutsedge, Yellow plant response rating” value [8, 14] was 80, the “Plant response rating, Johnsongrass” value [9, 11] was 5 and the “Johnsongrass plant response rating” value [9, 12] was 5. For the same compound, the “Plant response rating, Johnsongrass” value [9, 13] was 20, the “Johnsongrass plant response rating” value [9, 14] was 5 and the “Plant response rating, Ryegrass, Italian” value [10, 11] was 90. The “Ryegrass, Italian plant response rating” value [10, 12] was 90, the “Plant response rating, Ryegrass, Italian” value [10, 13] was 95 and the “Ryegrass, Italian plant response rating” value [10, 14] was 95.
`CCC(=O)Oc1c(OC)nn(C)c(=O)c1-c1c(C)sc2ccc(Cl)cc12` [Compound 131] was tested, and the “Plant response rating, Galium” value [1, 15] was 85, the “Plant response rating, Galium” value [1, 16] was 90 and the “Plant response rating, Galium” value [1, 17] was 95. The “Galium plant response rating” value [1, 18] was 95, the “Plant response rating, Soybean” value (soybean (Glycine max); [15]) was 0 and the “Plant response rating, Soybean” value (soybean (Glycine max); [16]) was 0. The “Plant response rating, Soybean” value (soybean (Glycine max); [17]) was 0, the “Soybean plant response rating” value (soybean (Glycine max); [18]) was 0 and the “Plant response rating, Corn” value (corn (Zea mays); [15]) was 0. The “Plant response rating, Corn” value (corn (Zea mays); [16]) was 0, the “Plant response rating, Corn” value (corn (Zea mays); [17]) was 5 and the “Corn plant response rating” value (corn (Zea mays); [18]) was 15. For the same compound, the “Plant response rating, Foxtail, Giant” value [2, 15] was 35, the “Plant response rating, Foxtail, Giant” value [2, 16] was 85 and the “Plant response rating, Foxtail, Giant” value [2, 17] was 90. The “Foxtail, Giant plant response rating” value [2, 18] was 98, the “Plant response rating, Crabgrass, Large” value [3, 15] was 0 and the “Plant response rating, Crabgrass, Large” value [3, 16] was 20. The “Plant response rating, Crabgrass, Large” value [3, 17] was 60, the “Crabgrass, Large plant response rating” value [3, 18] was 80 and the “Plant response rating, Velvetleaf” value [4, 15] was 0. The “Plant response rating, Velvetleaf” value [4, 16] was 55, the “Plant response rating, Velvetleaf” value [4, 17] was 85 and the “Velvetleaf plant response rating” value [4, 18] was 95. The “Plant response rating, Wheat” value [5, 15] was 0, the “Plant response rating, Wheat” value [5, 16] was 0 and the “Plant response rating, Wheat” value [5, 17] was 20. For the same compound, the “Wheat plant response rating” value [5, 18] was 20, the “Plant response rating, Blackgrass” value [6, 15] was 0 and the “Plant response rating, Blackgrass” value [6, 16] was 40. The “Plant response rating, Blackgrass” value [6, 17] was 40, the “Blackgrass plant response rating” value [6, 18] was 90 and the “Plant response rating, Barnyardgrass” value [7, 15] was 0. For the same compound, the “Plant response rating, Barnyardgrass” value [7, 16] was 0, the “Plant response rating, Barnyardgrass” value [7, 17] was 10 and the “Barnyardgrass plant response rating” value [7, 18] was 35. The “Plant response rating, Nutsedge, Yellow” value [8, 15] was 10, the “Plant response rating, Nutsedge, Yellow” value [8, 16] was 35 and the “Plant response rating, Nutsedge, Yellow” value [8, 17] was 65. The “Nutsedge, Yellow plant response rating” value [8, 18] was 75, the “Plant response rating, Johnsongrass” value [9, 15] was 0 and the “Plant response rating, Johnsongrass” value [9, 16] was 0. The “Plant response rating, Johnsongrass” value [9, 17] was 0, the “Johnsongrass plant response rating” value [9, 18] was 20 and the “Plant response rating, Ryegrass, Italian” value [10, 15] was 10. The “Plant response rating, Ryegrass, Italian” value [10, 16] was 80, the “Plant response rating, Ryegrass, Italian” value [10, 17] was 95 and the “Ryegrass, Italian plant response rating” value [10, 18] was 95.
